# Data published in US11883383B2, “Pharmaceutically acceptable salts of [3-(4- {2-butyl-1-[4-(4-chloro-phenoxy)-phenyl]-1H-imidazol-4-yl} -phenoxy)-propyl]-diethyl-amine” (vTv Therapeutics LLC, priority 2018, dated 2024).
# Experiment: Salt/co-crystal screening: 38 acids, eight solvent systems, solids analysed by XRPD
# Format: physicochemical
# Details: acid/freebase charge 1:1 unless label says 2:1, stirred at RT, else 5° C. slurry, anti-solvent addition or evaporation (footnote marks)
# Description: XRPD analysis was performed with a Panalytical X'Pert^3 Powder XRPD on a Si zero-background holder. The 2θ position was calibrated against Panalytical Si reference standard disc.
# A total of 320 salt/co-crystal screening experiments were conducted using 38 acids (two molar ratios for HCl and HBr) and eight solvent systems. Specifically, freebase stock solutions of ˜100 mg/mL were first prepared in each solvent system. For each experiment, 0.2 mL stock solution and the corresponding acids were mixed in a molar charge ratio of 1:1 (acid/freebase, 2:1 for HCl/freebase and HBr/freebase as well), and then stirred at RT. After stirring for 3-5 days, if precipitation was observed, the precipitate was isolated. It no precipitation, the clear solutions were first transferred to slurry at 5° C. to introduce precipitation. Solutions without any precipitation were further subjected to anti-solvent addition (for solvents in column B/D, 0.5 mL hexane was added; for solvents in column G/H, 0.5 mL water was added; for solvent in column F, 0.5 mL n-heptane was added). If still no precipitation, the final clear solutions were transferred to evaporation at RT to induce precipitation. All solids isolated were vacuum dried at RT for 2 hrs before XRPD analysis.
SMILES,"Solid obtained in salt screening (XRPD), solvent G Methanol/H2O (19:1, v/v)","Solid obtained in salt screening (XRPD), solvent D Acetone/Hexane (1:2, v/v)","Solid obtained in salt screening (XRPD), solvent H Dioxane/H2O (9:1, v/v)","Solid obtained in salt screening (XRPD), solvent A Ethanol","Solid obtained in salt screening (XRPD), solvent B Ethyl acetate/Hexane (1:2, v/v)","Solid obtained in salt screening (XRPD), solvent F Methyl tertbutyl ether","Solid obtained in salt screening (XRPD), solvent C THF","Solid obtained in salt screening (XRPD), solvent E Toluene"
O=C(O)CCCCC(=O)O [Adipic acid],amorphous*,FB Type B*,amorphous*,gel*,amorphous*,amorphous*,gel*,gel*
O=C(O)/C=C/C(=O)O [Fumaric acid],amorphous*,–,amorphous*,gel*,–,–,gel*,–
O=C(O)c1ccc2ccccc2c1O [1-hydroxy-2-naphthoic acid],amorphous*,gel,amorphous*,amorphous*,gel*,gel,gel,gel
O=C(O)c1ccccc1O [Salicyclic acid],amorphous*,amorphous*,amorphous*,gel*,amorphous*,amorphous^&,gel*,gel*
O=C(O)CC(O)(CC(=O)O)C(=O)O [Citric acid],amorphous*,–,amorphous*,gel*,–,amorphous,amorphous^#,amorphous
CCCCCC(=O)O [Hexanoic acid],amorphous*,gel*,FB Type A*,gel,gel*,FB Type B^&,gel,gel
O=C(O)[C@H](O)[C@@H](O)[C@H](O)[C@H](O)CO [Gluconic acid],amorphous*,amorphous^&,amorphous*,amorphous*,gel*,amorphous,amorphous*,gel
O=C(O)c1cc(O)ccc1O [Gentisic acid],–,–,–,gel*,–,–,gel*,–
Nc1ccc(C(=O)O)c(O)c1 [4-Aminosalicylic acid],–,gel,gel,gel*,–,–,gel,gel
O=C(O)c1ccccc1 [Benzoic acid],amorphous*,gel*,amorphous*,gel*,gel*,amorphous*,gel*,gel*

# Next, values leading:
"Solid obtained in salt screening (XRPD), solvent G Methanol/H2O (19:1, v/v)","Solid obtained in salt screening (XRPD), solvent D Acetone/Hexane (1:2, v/v)","Solid obtained in salt screening (XRPD), solvent H Dioxane/H2O (9:1, v/v)","Solid obtained in salt screening (XRPD), solvent A Ethanol","Solid obtained in salt screening (XRPD), solvent B Ethyl acetate/Hexane (1:2, v/v)","Solid obtained in salt screening (XRPD), solvent F Methyl tertbutyl ether","Solid obtained in salt screening (XRPD), solvent C THF","Solid obtained in salt screening (XRPD), solvent E Toluene",SMILES
gel*,–,–,–,–,–,–,–,O=C(O)C(=O)O [Oxalic acid]
gel*,gel,gel*,gel*,–,amorphous,gel,gel*,CS(=O)(=O)O [Methane sulfonic acid]
amorphous*,gel,amorphous*,amorphous*,–,–,gel,gel,O=C(O)C[C@H](O)C(=O)O [L-malic acid]
–,–,amorphous^&,–,–,FB Type A*,–,–,CCCCCCCCCCCCCCCCCC(=O)O [Stearic acid]
–,–,glutamic acid,glutamic acid,–,glutamic acid,–,–,N[C@@H](CCC(=O)O)C(=O)O [Glutamic acid]
amorphous*,gel,amorphous*,amorphous*,gel*,gel,gel,gel,O=C(O)[C@H](O)c1ccccc1 [R-mandelic acid]
FB Type A^&,gel*,amorphous*,gel*,FB Type A,FB Type B*,gel*,gel*,CCC(=O)O [Propionic acid]
amorphous*,–,–,–,–,–,–,–,O=C(O)C(O)C(O)C(=O)O [L-tartartic acid]
amorphous*,–,amorphous*,gel*,nicotinic acid,nicotinic acid,gel*,–,O=C(O)c1cccnc1 [Nicotinic acid]
